The results in this text go back to a melting point compilation (Tetko et al.; mined from patent text by program, amines drawn as free bases though some values may be those of a salt).

SMILES strings stand for the structures.

A word on the melting point: it is the temperature of the solid-liquid transition. As for `CCOC(=O)C=Cc1ccc2c(c1)CC(NC(=O)OC(C)(C)C)CC2` (stereo unspecified), the melting point lay in the range of 99 to 100 °C.
The result for `CC(C)C(NC(=O)OC(C)(C)C)C(=O)NC(C(=O)OC1CC(n2cc(C=CBr)c(=O)[nH]c2=O)OC1CN=[N+]=[N-])C(C)C` (stereo unspecified) reads 133 to 135 °C; that for `O=c1[nH]c2cc(Cl)ccc2c(=O)c(-c2ccc([N+](=O)[O-])cc2)c1O`, 310 to 312 °C.
Next, `CS(=O)(=O)c1ccc(C2=C(c3ccccc3)C(=O)N(c3ccc(F)cc3)C2=O)c(F)c1`: 198 to 200 °C.
In turn, `CCN(CC)C(=O)COc1cc(N)c(Cl)cc1C(=O)O` had a melting point of 186 to 188 °C.
Next, `Cc1nc(-n2ccc(OCC3CC3)cc2=O)sc1C(=O)NCc1ccccc1`: 218 to 220 °C; `CCOC(=O)C(Cl)=NO`: 75 to 80 °C.
Next, `Cc1cc(C)c(C2C(=O)C(Cc3ccc(Cl)cc3)N(C)C2=O)c(C)c1` (stereo unspecified): above 230 °C; `O=[N+]([O-])c1ccc(CO)c(CCO)c1`: 79 to 81 °C.
Next, `COCC(Cl)C(=O)Nc1c(C(=O)CC(=O)Nc2nccs2)cccc1C(F)(F)F` (stereo unspecified): 190 °C; `CC(C)(CS(C)(=O)=O)NC(=O)c1c(NC(=O)c2cc(C(F)(F)F)nn2-c2ncccc2Cl)c(Cl)cc2cn[nH]c12`: 173 to 176 °C.
On to `CCOC(C)O[C@H]1C(=O)N(C(=S)Nc2ccccc2)[C@H]1c1ccccc1` (stereo partly specified), for which the melting point was 108 to 112 °C.
Next, `CCCCCCNC(=O)OC1CCN(C(=O)Oc2ccc(Oc3ccc(OC)cc3)cc2)CC1`: 91 to 93 °C.
Next, `Nc1c(Br)cc(S(=O)(=O)C(F)(F)F)cc1[N+](=O)[O-]`: 147 °C.
The result for `NC(=O)c1ccc(OCCNCC(O)COc2ccc(-c3csnn3)cc2)cc1` (stereo unspecified) reads 173 to 174 °C.
Turning to `CCCC(=N)Nc1ccccc1N1CCOCC1`, the melting point worked out at 131 °C.
For the molecule `CCN(CC)CCCCNc1ncc2c(n1)N(CC)C(=O)N(c1cc(OC)cc(OC)c1)C2`, the melting point lay in the range of 83 to 85 °C.
The result for `Oc1c2c(nn1-c1nc3ccc(F)cc3s1)CCc1ccccc1-2` reads 246 to 247 °C; that for `CCC(C)(C)NC(=O)n1nc(C)n(NC)c1=O`, 98 °C; that for `CCCCCCOc1ccc(CCCCCCCCC(=O)N(C)O)cc1`, 59 to 61 °C.
`CN(C)c1ccc2c(c1)C(=O)CC(c1cccc(O)c1)=N2`: the melting point was 342 to 344 °C.
The result for `O=C(Nc1ccc2cc(CN3CCCC3)cnc2c1)N1CCC(c2ccccc2)CC1` reads 222 to 224 °C; that for `CC(C)(C)OC(=O)NCc1cccc(OCCC2Oc3ccccc3N(Cc3ccc(Cl)cc3)C2=O)c1` (stereo unspecified), 114 to 116 °C; that for `COC(=O)C(C)(C)C(=O)OCOC1=C(C(=O)Nc2ccccn2)N(C)S(=O)(=O)c2ccccc21`, 112 to 114 °C.
Next, `COC(=O)c1cc(Cl)c2c(c1Cl)OC(c1ccccc1)(c1ccccc1)O2`: 69 to 70 °C; `O=[N+]([O-])c1ccc(CP2(=O)OCCCCO2)cc1`: 136 to 137 °C.
Next, `COc1ccc(-n2c(=O)cc(C(F)(F)F)n(C)c2=O)c2c1CC(C)(C)O2`: 201 to 203 °C.
The molecule `CN1CCN(c2cccc3ccc(NC(=O)c4ccc(O)cc4)cc23)CC1` gave a melting point of 156 to 160 °C.
The molecule `COc1ccc(Oc2c(OC)cc(N)c3nccc(C)c23)cc1` registered a melting point of 185 to 187 °C.
`COc1ccc(Oc2nc(Nc3cccc(C(=O)O)c3)nc(Oc3ccc(C#N)cc3)n2)cc1`: the melting point was in the range of 240 to 242 °C.
Next, `COC(=O)c1ccc2c(c1)NCc1ccccc1O2`: 125 to 126 °C.
The result for `COC(=O)Cc1nc(-c2ccc(C)cc2)oc1C` reads 59 to 60 °C; that for `COc1ccc(CC2(C(=O)N[C@@H](Cc3ccc(NC(=O)c4c(Cl)cccc4Cl)cc3)C(=O)O)CCCCC2)cc1`, 136 to 140 °C; that for `N#Cc1cc2c(cc1F)S(=O)(=O)N=CN2C1CC1`, 205 to 207 °C.
The result for `CNS(=O)(=O)c1cnc2c(OC)c(OC)c(OC)cc2c1O` reads 254 to 255 °C; that for `Cc1nn(C)c(C#N)c1[N+](=O)[O-]`, 96 to 98 °C; that for `CC(/C=C/C(=O)N1CCCc2cc3c(cc21)C(C)(C)CCC3(C)C)=C\C(=O)O`, 225 to 227 °C.
In turn, `CCCn1c(=O)cc(N)n(-c2ccccc2C)c1=O` came in with a melting point of 226 to 228 °C.
The molecule `CC(C)(C)OC(=O)N[C@@H](Cc1ccc(O)cc1)C(=O)NCC(=O)NCC(=O)Oc1c(Cl)c(Cl)c(Cl)c(Cl)c1Cl` showed a melting point of 186 °C.
Next, `OC1CSC(Oc2cc(-c3ccncc3)cnc2F)C(O)C1O` (stereo unspecified): 98 to 102 °C; `N#Cc1ccc(-c2ccc(I)cc2)cc1`: 162 to 168 °C.
Next, `Cn1c(=O)c(-c2c(Cl)cccc2Cl)cc2cnc(N)cc21`: 239 to 240 °C; `COc1ccc2[nH]cc(C3CCN(C(=O)NCC4CCC(c5ccccc5)(N(C)C)CC4)CC3)c2c1` (stereo unspecified): 98 to 100 °C.
Next, `COc1ccc(CN2C(=O)[C@@H](N3C(=O)c4ccccc4C3=O)[C@H]2/C=C/c2ccccc2)c(OC)c1` (relative stereo): 173 to 177 °C; `CCOC(=O)/C=C/c1nc(COc2ccc(COc3nn(-c4ccccc4)cc3C=O)cc2OC)c(C)o1`: 150 to 151 °C.
In turn, `CC(C)NC(=N)NC1=NC(=O)C(=O)N1c1ccc(Cl)c(Cl)c1` gave a melting point of 244 °C.
The result for `CCCCCCCCCCCCCCCCCC(=O)Oc1cc(OC)cc(OC)c1C(=O)C=Cc1ccc(OC)cc1` reads 65 to 66 °C; that for `COC(=O)Nc1coc2cc(NS(C)(=O)=O)c(Oc3ccccc3)cc2c1=O`, 233 to 235 °C.
In the case of `CCC(Cl)C(=O)NC(C)=O` (stereo unspecified), the melting point lay within 51 to 53 °C.
The result for `O=C(N(c1ccccc1)c1nc(C(Cl)(Cl)Cl)ns1)C(Cl)(Cl)Cl` reads 158 °C.
The result for `COc1c(N2CC[C@@H](O)[C@H](C)C2)c(F)c(N)c2c(=O)c(C(=O)O)cn(C3CC3)c12` (relative stereo) reads 240 to 244 °C; that for `CCCN1c2ccccc2C(=O)N(CC(=O)O)c2cc(Cc3c[nH]c4ccccc34)ccc21`, 160 to 170 °C; that for `CCc1ccc(OCC(O)CN2CCC3(CC2)CSC2=C(O3)c3ccccc3C(=O)C2=O)cc1` (stereo unspecified), 137 to 138 °C.
The result for `CCCCCCCCC1C=C(Oc2ccc(C(=O)O)o2)C=C2N=C3CCCCC3=C21` (stereo unspecified) reads 142 to 144 °C; that for `O=C(CCC1CCN(C(=O)OCc2ccc([N+](=O)[O-])cc2)CC1)c1ccc2c(c1)CN1C(=O)c3ccccc3C1CC2` (stereo unspecified), 179 to 181 °C.
In turn, `CCn1cc(Cc2ccc(C(=O)OC)cc2OC)c2cc(NC(=O)CC3CCCC3)ccc21` registered a melting point of 144 to 146 °C.
The result for `CCCc1c(OCCCCCC(=O)c2cc(O)c(O)cc2F)ccc(C(=O)O)c1O` reads 193 to 195 °C.
Next, `CN(C)c1ccc2c(=O)c(-c3nnnn3C)cn(C)c2c1`: 280 to 283 °C; `CCOC1CCCC(C2NC(=O)C2C(C)O[Si](C)(C)C(C)(C)C)C1O` (stereo unspecified): 136 to 138 °C.
The result for `CC(=O)[C@H]1[C@H](C(=O)O)C1(C)C` (relative stereo) reads 111 °C; that for `CC(=O)SCC(Cc1ccc(F)cc1)C(=O)Nc1cccc(C(=O)O)c1` (stereo unspecified), 172 to 174 °C.
Consider `Clc1ccc(C(Cn2ccnc2)SCCC=Cc2ccccc2)c(Cl)c1` (stereo unspecified), for which the melting point is 111 to 113 °C.
Next, `Fc1ccc2c(C3CCN(CCC4COc5ccccc5O4)CC3)noc2c1` (stereo unspecified): 112 to 113 °C; `COC(=O)CCc1ccc(C(=O)O)cc1`: 146 to 148 °C.
The result for `Cn1cc(C(=O)O)c(=O)c2cc3cc(F)c(N4CCN(O)CC4)cc3nc21` reads 290 °C; that for `FC(F)c1cc(-c2ccc(C(F)(F)F)cc2)nc2c(-c3ccncc3)cnn12`, 222 °C; that for `CCOC(=O)c1sc2[nH]c(C(=O)c3ccccc3)cc2c1C`, 180 to 181 °C.
Next, `Cc1nc2cc(C3CCc4cncn43)ccc2[nH]1` (stereo unspecified): 230 °C; `Cc1cc(-c2cc(C(F)(F)F)nn2-c2ccc(S(C)(=O)=O)cc2)ccc1-c1cscn1`: 140 to 142 °C; `O=C(O)CCC12CCCn3c1c(c1ccccc13)CCO2` (stereo unspecified): 153 to 155 °C.
With `CC1=C(C(=O)CS(=O)(=O)NC(C)C)C(c2cccc([N+](=O)[O-])c2)C(C(=O)OCCO)=C(C)N1` (stereo unspecified), the melting point was in the range of 185 to 188 °C.
As to `Cc1cc(C)n2nc(Sc3ccccc3Cl)nc2n1`, the melting point was found to be 143 °C.
The result for `CCCN(C(=O)c1cccc(-c2nc(=O)c3ccccc3s2)n1)C(=O)N(C)C` reads 191 to 192 °C.
The result for `CC(C)(C)c1ccc(C(O)CCCCC2CCCCC2)cc1C(C(N)=O)C1c2ccccc2Oc2ccccc21` (stereo unspecified) reads 121 to 122 °C.
The result for `CC(=O)C1(c2ccc(Br)cc2)C=CC=CC1` (stereo unspecified) reads 126 to 128 °C; that for `CCC1CCC2(C)C(=CCC3C4CC(O)C(=O)C4(C)CCC32)C1` (stereo unspecified), 166 to 168 °C; that for `CCCCCCCCCCOc1cnc(-c2ccc(C#CCCCC(C)O)cc2)nc1` (stereo unspecified), 82 to 83 °C.
In turn, `BrC(Br)c1nccnc1C(Br)Br` had a melting point of 167 to 170 °C.
Next, `BrCCCCCCCOc1nc(-c2ccccc2)c(-c2ccccc2)n1-c1ccccc1`: 97 to 99 °C; `COc1cccc([C@@H](c2ccc(C3CN(CCC(=O)O)C3)cc2)N2C[C@@H](C)N(Cc3ccccc3)C[C@@H]2C)c1`: 93 to 96 °C.
Turning to `CCOC(=O)c1c(C)nc2cc(C)ccn12`, the melting point is 59 to 61 °C.
Next, `COc1cccc(N(C)C(=O)c2ncc(-c3cccc(C)c3)s2)c1`: 85 °C; `COc1cc2ncc(C#N)c(Nc3cccc(C(N)=O)c3)c2cc1OC`: 253 to 255 °C.
Turning to `CN1C(C(=O)Nc2ccc(O)c(=O)cc2)=C(O)c2ccccc2S1(=O)=O`, the melting point is 258 to 265 °C.
Molecule `CCOC(=O)COc1cc(C(=O)OC)on1` had a melting point of 66 to 67 °C.
The result for `Sc1nnc(-c2ccc(Cl)cc2)s1` reads 178 °C.
